From ChEMBL document CHEMBL1201862, “PubChem BioAssay data set” (2004)
Calls of active or inactive are those of the source. The rule behind the calls is not given here.

target: T1, Exodeoxyribonuclease V (Escherichia coli (strain K12), UniProt P04993+P07648+P08394); test: RecBCD inhibition via phage-restricted bacterial growth – absorbance, V66 E. coli, mutant T4 phage, counter-screen for AddAB inhibitor project, dose response (AID 492957); format: functional, cell-based, Escherichia coli str. K-12 substr. MG1655
T1 sequence (P04993 whole entry): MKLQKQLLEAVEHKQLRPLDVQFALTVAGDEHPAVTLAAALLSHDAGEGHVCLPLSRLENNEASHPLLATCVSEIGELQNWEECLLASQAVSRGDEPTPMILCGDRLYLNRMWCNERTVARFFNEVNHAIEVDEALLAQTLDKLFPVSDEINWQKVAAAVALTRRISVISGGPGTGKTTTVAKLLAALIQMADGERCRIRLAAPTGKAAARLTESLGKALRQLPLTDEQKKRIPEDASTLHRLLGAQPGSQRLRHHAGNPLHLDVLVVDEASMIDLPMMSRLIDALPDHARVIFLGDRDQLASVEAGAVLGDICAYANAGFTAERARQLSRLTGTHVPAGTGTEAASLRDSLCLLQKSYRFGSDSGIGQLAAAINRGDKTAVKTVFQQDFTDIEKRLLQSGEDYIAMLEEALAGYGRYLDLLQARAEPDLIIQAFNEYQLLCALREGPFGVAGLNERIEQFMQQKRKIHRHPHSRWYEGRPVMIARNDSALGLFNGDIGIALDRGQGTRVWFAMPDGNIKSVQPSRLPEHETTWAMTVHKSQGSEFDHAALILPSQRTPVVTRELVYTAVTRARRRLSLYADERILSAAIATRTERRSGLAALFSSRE
T1 sequence (P07648 whole entry): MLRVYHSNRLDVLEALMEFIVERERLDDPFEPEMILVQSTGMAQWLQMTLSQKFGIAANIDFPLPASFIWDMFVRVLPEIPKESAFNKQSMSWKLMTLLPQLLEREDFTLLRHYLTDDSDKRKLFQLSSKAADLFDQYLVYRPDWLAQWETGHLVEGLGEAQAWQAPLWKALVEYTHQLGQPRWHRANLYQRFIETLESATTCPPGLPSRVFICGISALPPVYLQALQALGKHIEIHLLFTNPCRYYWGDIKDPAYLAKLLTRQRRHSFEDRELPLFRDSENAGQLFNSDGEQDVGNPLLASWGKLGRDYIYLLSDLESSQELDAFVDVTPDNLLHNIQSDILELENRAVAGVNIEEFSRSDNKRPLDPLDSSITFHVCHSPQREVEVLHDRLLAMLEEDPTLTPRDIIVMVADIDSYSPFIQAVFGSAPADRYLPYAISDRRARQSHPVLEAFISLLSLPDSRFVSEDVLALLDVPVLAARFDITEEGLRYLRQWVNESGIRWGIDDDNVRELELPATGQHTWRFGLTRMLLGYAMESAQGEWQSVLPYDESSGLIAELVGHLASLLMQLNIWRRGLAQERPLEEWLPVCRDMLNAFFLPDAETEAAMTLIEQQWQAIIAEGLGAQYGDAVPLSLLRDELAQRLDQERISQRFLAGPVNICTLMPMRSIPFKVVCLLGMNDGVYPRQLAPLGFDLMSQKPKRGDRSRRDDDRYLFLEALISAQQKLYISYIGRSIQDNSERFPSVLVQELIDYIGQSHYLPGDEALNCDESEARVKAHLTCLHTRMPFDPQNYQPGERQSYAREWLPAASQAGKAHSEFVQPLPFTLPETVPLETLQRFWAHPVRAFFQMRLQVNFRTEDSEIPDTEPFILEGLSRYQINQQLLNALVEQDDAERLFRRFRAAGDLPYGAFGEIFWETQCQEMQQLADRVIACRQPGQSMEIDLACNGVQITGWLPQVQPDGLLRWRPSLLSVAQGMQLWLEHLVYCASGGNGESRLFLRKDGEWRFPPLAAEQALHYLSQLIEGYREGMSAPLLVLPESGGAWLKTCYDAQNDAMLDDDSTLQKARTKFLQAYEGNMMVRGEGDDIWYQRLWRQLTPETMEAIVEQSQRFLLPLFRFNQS
T1 sequence (P08394 whole entry): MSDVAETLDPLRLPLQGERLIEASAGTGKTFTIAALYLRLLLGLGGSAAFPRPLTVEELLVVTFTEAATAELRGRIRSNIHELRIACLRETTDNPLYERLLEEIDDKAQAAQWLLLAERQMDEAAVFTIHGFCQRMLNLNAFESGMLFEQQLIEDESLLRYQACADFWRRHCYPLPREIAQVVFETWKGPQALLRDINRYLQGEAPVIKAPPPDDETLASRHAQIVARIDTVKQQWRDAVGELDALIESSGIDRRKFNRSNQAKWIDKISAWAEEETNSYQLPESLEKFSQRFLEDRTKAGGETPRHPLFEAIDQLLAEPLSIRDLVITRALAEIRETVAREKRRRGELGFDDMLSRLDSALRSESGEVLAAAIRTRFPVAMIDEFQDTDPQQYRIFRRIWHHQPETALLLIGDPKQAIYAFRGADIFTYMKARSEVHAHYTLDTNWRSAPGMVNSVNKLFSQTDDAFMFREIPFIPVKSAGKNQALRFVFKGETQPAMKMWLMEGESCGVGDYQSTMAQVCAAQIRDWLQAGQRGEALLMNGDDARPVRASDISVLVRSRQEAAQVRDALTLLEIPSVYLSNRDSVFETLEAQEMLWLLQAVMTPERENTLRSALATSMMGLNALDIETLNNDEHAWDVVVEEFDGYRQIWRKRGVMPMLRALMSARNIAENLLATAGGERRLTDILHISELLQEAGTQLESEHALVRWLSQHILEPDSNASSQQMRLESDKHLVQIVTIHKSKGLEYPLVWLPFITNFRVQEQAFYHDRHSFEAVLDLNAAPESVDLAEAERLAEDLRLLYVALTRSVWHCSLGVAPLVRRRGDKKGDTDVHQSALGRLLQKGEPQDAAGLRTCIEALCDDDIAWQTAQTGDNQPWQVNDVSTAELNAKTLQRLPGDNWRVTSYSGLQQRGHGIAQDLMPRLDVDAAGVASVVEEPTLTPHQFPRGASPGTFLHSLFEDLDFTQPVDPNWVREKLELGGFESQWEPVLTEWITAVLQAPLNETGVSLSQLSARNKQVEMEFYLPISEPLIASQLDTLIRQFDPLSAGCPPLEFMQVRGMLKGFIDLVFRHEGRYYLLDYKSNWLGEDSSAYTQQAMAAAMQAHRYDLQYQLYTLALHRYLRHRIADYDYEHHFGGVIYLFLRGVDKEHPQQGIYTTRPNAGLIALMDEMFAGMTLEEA

Structure (SMILES) | IC50
CCCCC(=O)NC(c1ccco1)c1cc(Cl)c2cccnc2c1O (stereo not drawn) | > 119 µM (inactive)
CCCCC(=O)NC(c1ccc(Cl)cc1)c1ccc2cccnc2c1O (stereo not drawn) | > 119 µM (inactive)
O=C(N/N=C/c1ccccc1O)/C(O)=C\C1=NC2(CCCC2)Cc2ccccc21 | > 119 µM (inactive)
